# Test results taken from patent US7659293B2, “α-Amino-N-hydroxy-acetamide derivatives” (Novartis AG, priority 2001, dated 2010).
# Counter-ions that a name gives are not always drawn.
# Biological target: T1, MT1-MMP (Homo sapiens, UniProt P50281)
# T1 construct: initiator Met (ATG start codon from NdeI site) (N); made in house
# Test: MT1-MMP fluorogenic substrate inhibition assay
# Format: biochemical
# Settings: mean ± SEM of three independent experiments
# Experimental: The inhibitory activities of compounds of formula I on MT1-MMP, MMP1 (collagenase 1) and MMP2 (gelatinase A) can be determined as follows:
# Stock solutions of substrate (MCA-Pro-Leu-Gly-Leu-Dpa-Ala-Arg-NH2 (SEQ ID NO: 1), C. G. Knight, et al, FEBS lett., 296, 263-266, (1992)), are prepared in 100% DMSO at a concentration 1.0 mM.
# Stock solutions of inhibitors are prepared in 100% DMSO. The inhibitor is diluted into the assays from a solution in 100% DMSO, and controls substitute an equal volume of DMSO so that the final DMSO concentration from inhibitor and substrate dilutions in all assays is 6.0%. Assays are performed in assay buffer (150 mM NaCl, 10 mM CaCl2, 50 mM Tris-Cl pH7.5, 0.05% Brij-35) containing 6.0% DMSO once the substrate and inhibitor are diluted into it. […] The fluorescence changes are monitored using an excitation wavelength of 320 nm and an emission wavelength of 340 nm. […] The reaction mixture is preincubated with the inhibitor for 30 min, the reaction is started by the addition of MMP enzyme and the fluorescence intensity is measured for 10 min. […]
# Expression and Purification: The subcloned CD-MT1-MMP is used to transfect E. coli strain BL21[DE3] (Hanahan, D. J. Mol. Biol. 1983; 166(4):557-80) and expressed as insoluble inclusion body materials. […] Fractions of 1 ml are collected and […] aliquots are analyzed by immunoblotting. […]
structure (smiles),measurement,value
"CN(C)c1ccc(CN(CC(=O)NO)S(=O)(=O)c2ccc(OCC3CC3)cc2)cc1 [Example 2, 2-[(4-Cyclopropylmethoxy-benzenesulfonyl)-(4-dimethylamino-benzyl-amino]-N-hydroxy-acetamide HCl salt]",IC50,4.67 ± 0.17 nM
